Calls of active or inactive are those of the source.
What was measured:
[1] = CCR5-tropic HIV-1 fusion blockers – cell-based, CCR5-tropic Env, dose response (AID 2279); type: functional
[2] = target: Induced myeloid leukemia cell differentiation protein Mcl-1 (Homo sapiens, UniProt Q07820); type: functional
[3] = target: T1, Calpain-2 catalytic subunit (Sus scrofa, UniProt P43367); test: m-calpain protease blockers, concentration series – biochemical, fluorogenic peptide substrate, dose response (AID 1420); type: functional
T1 sequence (P43367 whole entry): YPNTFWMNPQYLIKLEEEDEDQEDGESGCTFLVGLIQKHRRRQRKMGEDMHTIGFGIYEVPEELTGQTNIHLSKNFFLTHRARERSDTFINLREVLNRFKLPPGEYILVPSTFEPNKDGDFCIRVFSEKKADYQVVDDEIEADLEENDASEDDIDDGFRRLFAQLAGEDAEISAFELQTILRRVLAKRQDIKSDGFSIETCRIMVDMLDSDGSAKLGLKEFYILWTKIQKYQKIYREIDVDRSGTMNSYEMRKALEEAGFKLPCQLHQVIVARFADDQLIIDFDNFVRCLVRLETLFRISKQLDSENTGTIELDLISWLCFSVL

[4] = target: T2, SUMO-activating enzyme (Homo sapiens, UniProt Q9UBT2); test: blockers of UBC9-mediated SUMO conjugation – biochemical, AlphaScreen, SUMOylation inhibitor project, confirmation (AID 2018); type: functional
[5] = target: T2, SUMO-activating enzyme; test: blockers of SAE1/SAE2–UBC9 SUMO transfer – biochemical, HTRF, uHTS, primary screen (AID 2006); type: protein-complex assay
[6] = target: Bcl-2-like protein 10 (Homo sapiens, UniProt Q9HD36); test: Concentration-response of Bcl-B inhibitors by biochemical FP with TR3 (AID 1243); type: functional
[7] = target: Beta Lactamase (Pseudomonas aeruginosa, UniProt Q932Y6); test: BLA reporter interference, concentration series – BLA reporter cells, FRET fluorescence, artefact control for NOD2-RIPK2 interaction inhibitor project, dose response (AID 651552); type: functional, cell-based
[8] = target: T3, Kappa-type opioid receptor (Homo sapiens, UniProt P41145); type: functional
[9] = target: T4, Microphthalmia-associated transcription factor (Homo sapiens, UniProt O75030); test: reducers of TRPM1 reporter luminescence, concentration series – cell-based, SK-MEL-5, cherry-picked, set 3, MITF inhibitor project, dose response (AID 493073); type: functional;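 also: SK-MEL-5 melanoma cells with luciferase driven by the MITF target TRPM1 promoter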
T4 sequence (O75030 whole entry): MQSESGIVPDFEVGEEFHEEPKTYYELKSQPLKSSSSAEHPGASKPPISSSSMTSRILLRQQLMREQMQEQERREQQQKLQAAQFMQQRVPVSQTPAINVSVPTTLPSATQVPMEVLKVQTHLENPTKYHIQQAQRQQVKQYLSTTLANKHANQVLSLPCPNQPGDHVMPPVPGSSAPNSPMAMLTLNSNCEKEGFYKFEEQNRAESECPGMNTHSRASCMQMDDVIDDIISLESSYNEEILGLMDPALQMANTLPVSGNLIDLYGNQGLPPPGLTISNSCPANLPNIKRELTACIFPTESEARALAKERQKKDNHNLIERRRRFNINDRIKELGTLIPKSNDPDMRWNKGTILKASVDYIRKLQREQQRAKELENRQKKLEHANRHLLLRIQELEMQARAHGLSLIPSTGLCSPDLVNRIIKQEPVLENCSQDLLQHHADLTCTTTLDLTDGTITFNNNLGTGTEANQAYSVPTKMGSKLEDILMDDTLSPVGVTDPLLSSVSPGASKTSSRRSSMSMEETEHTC

[10] = target: T3, Kappa-type opioid receptor; type: functional; remark: listed apart in the source
[11] = target: Beta-galactosidase (Escherichia coli, UniProt Q8VNN2); type: functional
[12] = target: Neuropeptide Y receptor type 2 (Homo sapiens, UniProt P49146); type: functional, cell-based;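 also: HEK293 cells expressing the receptor and a CNG channel; stimulus was NPY near EC95 followed by isoproterenol to raise cAMP; antagonist potency measured as restoring cAMP signal that NPY suppresses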
[13] = target: T5, Rac GTPase-activating protein 1 (Homo sapiens, UniProt Q9H0H5); test: blockers of MgcRacGAP-driven Rac1 GTP hydrolysis – biochemical, ADP Hunter fluorescence, primary and confirmatory, confirmation (AID 624330); type: functional
T5 sequence (Q9H0H5 whole entry): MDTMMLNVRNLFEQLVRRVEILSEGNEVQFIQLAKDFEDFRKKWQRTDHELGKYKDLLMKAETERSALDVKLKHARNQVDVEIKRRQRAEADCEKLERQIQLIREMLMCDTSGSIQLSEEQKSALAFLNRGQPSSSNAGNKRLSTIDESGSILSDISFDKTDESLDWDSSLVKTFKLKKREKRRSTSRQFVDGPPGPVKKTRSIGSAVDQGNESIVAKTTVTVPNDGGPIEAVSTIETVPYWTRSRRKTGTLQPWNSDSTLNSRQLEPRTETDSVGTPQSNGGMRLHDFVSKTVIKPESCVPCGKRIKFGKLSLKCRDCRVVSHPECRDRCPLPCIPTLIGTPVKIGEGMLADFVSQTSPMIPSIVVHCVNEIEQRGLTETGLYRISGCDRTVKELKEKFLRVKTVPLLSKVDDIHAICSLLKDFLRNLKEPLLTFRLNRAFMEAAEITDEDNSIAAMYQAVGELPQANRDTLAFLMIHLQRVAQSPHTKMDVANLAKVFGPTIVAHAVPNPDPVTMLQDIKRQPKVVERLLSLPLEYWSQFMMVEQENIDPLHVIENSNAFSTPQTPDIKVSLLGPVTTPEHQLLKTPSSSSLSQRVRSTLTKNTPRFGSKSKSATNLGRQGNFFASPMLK

[14] = target: Neuropeptide Y receptor type 1 (Homo sapiens, UniProt P25929); type: functional;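 also: HEK293 cells with a CNG channel challenged with NPY then isoproterenol; potency as antagonist that reverses NPY suppression of cAMP signal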
[15] = Fluorescence-based cell-based high throughput dose response assay for inhibitors of the interaction of nucleotide-binding oligomerization domain containing 2 (NOD2) and the receptor-interacting serine-threonine kinase 2 (RIPK2).; type: functional; conditions: Homo sapiens
[16] = viability loss in HeLa cells – cytotoxicity control for MgcRacGAP inhibitor project, dose response (AID 624300); type: functional
[17] = target: Mothers against decapentaplegic homolog 3 (Homo sapiens, UniProt P84022); test: blockers of Smad3 complex formation in lysate – cell lysate, secondary confirmation, chemiluminescent ELISA, HEK293 lysate, dose response (AID 1058); type: functional
[18] = target: T6, Alkaline phosphatase, tissue-nonspecific isozyme (Homo sapiens, UniProt P05186)
T6 sequence (P05186 whole entry): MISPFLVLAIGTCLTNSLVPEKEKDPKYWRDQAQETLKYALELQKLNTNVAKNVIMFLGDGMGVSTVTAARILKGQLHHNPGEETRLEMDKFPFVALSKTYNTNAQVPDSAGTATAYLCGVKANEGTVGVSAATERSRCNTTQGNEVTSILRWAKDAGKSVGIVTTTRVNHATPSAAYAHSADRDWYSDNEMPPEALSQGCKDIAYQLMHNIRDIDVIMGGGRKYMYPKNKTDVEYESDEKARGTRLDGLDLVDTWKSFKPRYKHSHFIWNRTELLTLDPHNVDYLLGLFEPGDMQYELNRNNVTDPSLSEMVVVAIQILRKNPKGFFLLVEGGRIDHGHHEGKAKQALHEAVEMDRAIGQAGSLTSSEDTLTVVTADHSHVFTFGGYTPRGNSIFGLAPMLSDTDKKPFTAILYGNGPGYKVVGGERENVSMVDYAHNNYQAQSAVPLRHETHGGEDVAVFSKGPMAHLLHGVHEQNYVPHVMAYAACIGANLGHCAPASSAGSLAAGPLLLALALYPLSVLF

[19] = system: HT-1080; test: HT1080 cell viability loss – fluorescence readout (AID 620); type: functional, cell-based; conditions: Homo sapiens
[20] = target: Luciferin 4-monooxygenase (Photinus pyralis, UniProt P08659); test: Counter Screen for Luciferase-based Assay Positives. [Related pubchem assays: 620, 618, 411 ]
[21] = system: HeLa; test: Cytotoxicity counterscreen assay for transcriptional activators of heat shock protein 70 (Hsp70). [Related pubchem assays: 1203, 1252 ]; type: functional; conditions: Homo sapiens;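 also: cells exposed to compound for 16 hours before readout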
[22] = HEK-293T viability loss after treatment – luminescence, T-cell screen hits, cytotoxicity control for TCR NF-kB inhibitor project, dose response (AID 489026); type: functional, cell-based;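 also: cells exposed to compound about 14 hours before the viability readout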
[23] = system: Vero; test: mammalian cell viability reduction – secondary assay, cytotoxicity control for West Nile virus antiviral project, dose response (AID 1650); type: functional; conditions: Chlorocebus sabaeus
[24] = DRD fibroblast viability loss – cell-based, non-viral oncogenic, luminescence, dose response (AID 1934); type: functional; conditions: Homo sapiens
[25] = system: BJ; test: cells; type: functional, cell-based; conditions: Homo sapiens
[26] = system: Vero; test: cells; type: functional, cell-based; conditions: Chlorocebus sabaeus
[27] = luciferase reporter signal suppression in cells – H4 neuroglioma cells, luminescence, dose response (AID 1990); type: functional, cell-based
[28] = Luminescence Cell-Based Dose Retest to Confirm Inhibitors of Cancer Stem Cells. [Related pubchem assays (depositor defined):AID2717, AID2721]; type: functional, Homo sapiens
[29] = Luminescence Cell-Based Dose Response HTS to Identify Inhibitors of 5'UTR Stem-Loop Driven Prion Protein mRNA Translation in H4 Neuroglioblastoma Cells. [Related pubchem assays: 1827 (Project Summary), 1813 (Primary HTS)]; type: functional
[30] = system: BJ; test: BJ-TERT-LT-ST fibroblast viability loss – cell-based, RAS-independent, luminescence, dose response (AID 1935); type: functional; conditions: Homo sapiens;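 also: BJ fibroblasts immortalized with TERT plus LT and ST oncogenes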
[31] = alpha-synuclein stem-loop luciferase translation blockers – H4 neuroglioma cells, luminescence, confirmation (AID 1988); type: functional, cell-based
[32] = target: Paired box protein Pax-8 (Homo sapiens, UniProt Q06710); test: PAX8 transcriptional activity inhibition in RMG-I – RMG-I cells, luciferase, cherry-pick, dose response (AID 687027); type: functional, cell-based;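 also: luciferase reporter driven by Pax8 target thyroperoxidase promoter measured by SteadyGlo luminescence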
[33] = system: Vero; test: cells; type: functional; conditions: Chlorocebus sabaeus
[34] = system: BJ; test: growth inhibition of engineered Ras-driven BJ cells – cell-based, alamar blue fluorescence, cherrypicked samples, dose response (AID 2631); type: functional; conditions: Homo sapiens;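 also: confirmatory dose-response assay in RAS-dependent BJ fibroblasts engineered with TERT, LT and ST, with cytotoxicity read by fluorescence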
[35] = system: BJ; test: BJ-TERT fibroblast viability loss – cell-based, RAS-independent, luminescence, dose response (AID 1933); type: functional; conditions: Homo sapiens
[36] = Luminescence-based counterscreen assay for KLF5 inhibitors: dose response cell-based high throughput screening assay to identify cytotoxic compounds using the IEC-6 intestinal epithelial cell line. [Related pubchem assays: 1700 (Primary screen.), 1834 (Confirmation screen.), 1858 (Summary AID.), 1905 (Counterscreen.)]; type: functional
[37] = mitochondrial function rescue without frataxin homolog – Friedreich's ataxia, plus single-dose screen, dose response (AID 1465); type: functional;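 also: yeast depleted of Yfh1p frataxin homolog grown on glycerol needing respiration; WST-1 tetrazolium dye reduction as measure of cellular dehydrogenase metabolic activity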

T2 sequence (Q9UBE0 whole entry): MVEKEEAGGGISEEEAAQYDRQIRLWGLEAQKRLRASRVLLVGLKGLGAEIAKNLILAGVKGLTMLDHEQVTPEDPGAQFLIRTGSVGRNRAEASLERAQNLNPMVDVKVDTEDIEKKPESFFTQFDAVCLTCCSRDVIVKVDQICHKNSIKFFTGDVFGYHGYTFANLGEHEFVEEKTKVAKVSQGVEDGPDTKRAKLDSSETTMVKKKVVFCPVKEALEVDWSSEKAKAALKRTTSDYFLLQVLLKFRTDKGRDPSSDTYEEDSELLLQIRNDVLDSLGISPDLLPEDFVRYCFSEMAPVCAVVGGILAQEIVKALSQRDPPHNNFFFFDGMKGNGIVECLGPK
T2 sequence (Q9UBT2 whole entry): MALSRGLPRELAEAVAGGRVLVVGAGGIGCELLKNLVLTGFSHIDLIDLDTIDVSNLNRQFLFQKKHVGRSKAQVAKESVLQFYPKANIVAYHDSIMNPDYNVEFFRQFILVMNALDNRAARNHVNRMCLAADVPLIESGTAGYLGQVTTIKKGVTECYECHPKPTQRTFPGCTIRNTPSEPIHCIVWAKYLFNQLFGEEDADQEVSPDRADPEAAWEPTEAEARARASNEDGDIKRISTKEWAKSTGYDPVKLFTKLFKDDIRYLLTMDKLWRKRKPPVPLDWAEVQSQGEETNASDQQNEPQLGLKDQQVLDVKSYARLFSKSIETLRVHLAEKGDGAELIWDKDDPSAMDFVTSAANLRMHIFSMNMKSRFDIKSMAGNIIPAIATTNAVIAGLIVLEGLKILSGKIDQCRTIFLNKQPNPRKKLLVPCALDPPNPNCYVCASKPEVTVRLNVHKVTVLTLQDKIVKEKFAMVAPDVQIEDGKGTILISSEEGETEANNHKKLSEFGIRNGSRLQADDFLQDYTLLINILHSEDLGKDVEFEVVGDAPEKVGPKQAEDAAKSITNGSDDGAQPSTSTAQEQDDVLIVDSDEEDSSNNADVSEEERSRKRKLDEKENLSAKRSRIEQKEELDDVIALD
T3 sequence (P41145 whole entry): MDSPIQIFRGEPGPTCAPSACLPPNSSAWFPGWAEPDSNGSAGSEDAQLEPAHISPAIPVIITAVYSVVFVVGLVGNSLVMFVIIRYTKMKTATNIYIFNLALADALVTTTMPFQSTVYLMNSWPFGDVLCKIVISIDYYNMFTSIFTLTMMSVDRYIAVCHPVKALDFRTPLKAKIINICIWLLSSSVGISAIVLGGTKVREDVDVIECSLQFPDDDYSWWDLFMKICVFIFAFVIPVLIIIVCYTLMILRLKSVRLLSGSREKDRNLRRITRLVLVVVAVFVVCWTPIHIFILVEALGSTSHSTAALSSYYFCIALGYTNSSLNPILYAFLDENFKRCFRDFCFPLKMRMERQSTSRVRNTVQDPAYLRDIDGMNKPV
Sequence of Neuropeptide Y receptor type 2 (P49146 whole entry): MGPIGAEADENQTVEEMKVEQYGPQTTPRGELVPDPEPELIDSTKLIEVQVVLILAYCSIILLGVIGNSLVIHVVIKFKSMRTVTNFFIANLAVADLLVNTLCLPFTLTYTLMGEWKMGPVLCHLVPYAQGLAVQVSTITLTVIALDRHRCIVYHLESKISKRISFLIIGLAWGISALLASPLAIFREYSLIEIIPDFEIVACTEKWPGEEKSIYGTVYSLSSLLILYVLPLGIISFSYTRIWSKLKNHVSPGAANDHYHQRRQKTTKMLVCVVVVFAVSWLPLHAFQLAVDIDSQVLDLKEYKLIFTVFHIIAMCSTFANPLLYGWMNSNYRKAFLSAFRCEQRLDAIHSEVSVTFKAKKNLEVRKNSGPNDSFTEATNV
Sequence of Luciferin 4-monooxygenase (P08659 whole entry): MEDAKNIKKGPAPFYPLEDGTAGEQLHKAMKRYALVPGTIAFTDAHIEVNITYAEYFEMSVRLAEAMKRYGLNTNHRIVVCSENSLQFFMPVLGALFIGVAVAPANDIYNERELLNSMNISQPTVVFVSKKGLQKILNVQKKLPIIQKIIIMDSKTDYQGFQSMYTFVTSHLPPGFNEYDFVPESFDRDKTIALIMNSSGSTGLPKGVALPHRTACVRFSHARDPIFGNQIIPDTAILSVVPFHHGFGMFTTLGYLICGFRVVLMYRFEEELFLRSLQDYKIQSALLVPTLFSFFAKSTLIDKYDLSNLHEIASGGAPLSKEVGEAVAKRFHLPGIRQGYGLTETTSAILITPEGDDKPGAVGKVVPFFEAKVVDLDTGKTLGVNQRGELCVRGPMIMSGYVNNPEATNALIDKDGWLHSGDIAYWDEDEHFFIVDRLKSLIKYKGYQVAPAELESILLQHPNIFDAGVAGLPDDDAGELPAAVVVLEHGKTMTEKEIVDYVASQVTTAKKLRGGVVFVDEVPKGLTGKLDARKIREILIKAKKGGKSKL
Sequence of Neuropeptide Y receptor type 1 (P25929 whole entry, the tested form may be a part): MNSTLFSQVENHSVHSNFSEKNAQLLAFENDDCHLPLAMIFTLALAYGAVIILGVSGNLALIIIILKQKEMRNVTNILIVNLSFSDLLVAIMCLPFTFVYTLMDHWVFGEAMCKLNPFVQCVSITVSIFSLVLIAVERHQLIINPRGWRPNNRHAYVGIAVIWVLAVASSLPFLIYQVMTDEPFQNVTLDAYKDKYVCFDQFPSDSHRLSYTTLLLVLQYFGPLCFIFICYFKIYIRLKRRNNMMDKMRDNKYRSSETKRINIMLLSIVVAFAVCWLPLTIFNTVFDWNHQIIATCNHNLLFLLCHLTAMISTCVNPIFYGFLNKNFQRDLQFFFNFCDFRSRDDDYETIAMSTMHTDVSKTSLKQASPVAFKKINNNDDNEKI
Sequence of Mothers against decapentaplegic homolog 3 (P84022 whole entry): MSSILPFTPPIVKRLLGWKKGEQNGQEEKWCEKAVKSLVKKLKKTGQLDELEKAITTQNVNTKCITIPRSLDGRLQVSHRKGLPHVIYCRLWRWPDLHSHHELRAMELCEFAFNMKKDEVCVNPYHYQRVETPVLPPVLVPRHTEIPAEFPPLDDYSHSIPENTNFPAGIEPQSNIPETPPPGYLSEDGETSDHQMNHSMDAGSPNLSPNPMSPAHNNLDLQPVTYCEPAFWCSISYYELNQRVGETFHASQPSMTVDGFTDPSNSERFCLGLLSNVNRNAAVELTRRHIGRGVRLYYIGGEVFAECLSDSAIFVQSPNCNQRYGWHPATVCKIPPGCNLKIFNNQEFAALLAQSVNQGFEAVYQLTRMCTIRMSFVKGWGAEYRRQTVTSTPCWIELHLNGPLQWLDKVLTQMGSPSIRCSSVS
Sequence of Beta Lactamase (Q932Y6 whole entry): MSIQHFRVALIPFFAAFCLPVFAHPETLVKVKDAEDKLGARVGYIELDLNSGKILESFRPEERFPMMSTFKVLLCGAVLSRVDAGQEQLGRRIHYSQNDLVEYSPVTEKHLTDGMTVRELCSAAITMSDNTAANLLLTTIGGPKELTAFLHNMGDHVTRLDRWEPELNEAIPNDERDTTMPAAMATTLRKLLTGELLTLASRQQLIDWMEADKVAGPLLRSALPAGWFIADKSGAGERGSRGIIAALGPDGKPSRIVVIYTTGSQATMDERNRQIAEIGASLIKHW
Sequence of Induced myeloid leukemia cell differentiation protein Mcl-1 (Q07820 whole entry): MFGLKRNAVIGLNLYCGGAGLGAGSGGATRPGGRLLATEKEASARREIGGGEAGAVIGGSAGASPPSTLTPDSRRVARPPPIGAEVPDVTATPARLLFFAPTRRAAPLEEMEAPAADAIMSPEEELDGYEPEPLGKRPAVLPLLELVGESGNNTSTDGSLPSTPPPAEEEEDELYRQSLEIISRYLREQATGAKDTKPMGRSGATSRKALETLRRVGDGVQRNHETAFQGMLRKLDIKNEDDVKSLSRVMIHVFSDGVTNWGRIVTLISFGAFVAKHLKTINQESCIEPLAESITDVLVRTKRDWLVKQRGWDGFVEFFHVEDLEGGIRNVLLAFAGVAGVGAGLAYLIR
Sequence of Paired box protein Pax-8 (Q06710 whole entry): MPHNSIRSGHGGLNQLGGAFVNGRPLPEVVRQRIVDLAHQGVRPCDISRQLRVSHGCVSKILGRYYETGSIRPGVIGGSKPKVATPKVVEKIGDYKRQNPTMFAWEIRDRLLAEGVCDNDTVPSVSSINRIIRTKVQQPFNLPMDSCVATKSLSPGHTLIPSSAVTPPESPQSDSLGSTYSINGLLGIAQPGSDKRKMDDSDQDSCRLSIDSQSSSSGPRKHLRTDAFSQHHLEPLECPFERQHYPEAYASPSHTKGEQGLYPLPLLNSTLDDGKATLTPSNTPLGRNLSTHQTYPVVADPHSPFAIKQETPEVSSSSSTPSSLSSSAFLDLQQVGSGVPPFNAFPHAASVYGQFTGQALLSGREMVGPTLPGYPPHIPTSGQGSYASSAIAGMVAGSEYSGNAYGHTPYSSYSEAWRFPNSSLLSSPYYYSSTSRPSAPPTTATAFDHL
Sequence of Bcl-2-like protein 10 (Q9HD36 whole entry): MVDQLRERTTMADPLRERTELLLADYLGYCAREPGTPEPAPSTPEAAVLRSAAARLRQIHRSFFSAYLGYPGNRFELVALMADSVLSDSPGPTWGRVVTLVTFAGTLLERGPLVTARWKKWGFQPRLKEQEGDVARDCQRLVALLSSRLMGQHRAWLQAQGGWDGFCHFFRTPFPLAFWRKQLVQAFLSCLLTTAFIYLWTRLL

## O=[N+]([O-])c1cccc(S(=O)(=O)Nc2nc3ccccc3nc2Nc2cccc(S(=O)(=O)N3CCCCC3)c2)c1
[1]
  IC50: 6.03 µM (active)
[2]
  IC50: 5.85 µM (active)
[3]
  IC50: 4.49 µM (not active)
[4]
  IC50: 4.59 µM (active)
[5]
  IC50: 20.1 µM (active)

## COc1ccc(OC)c(C=NNC(=O)c2cc[n+](CC(=O)c3ccccc3)cc2)c1
[6]
  EC50: 1.35 µM (active)

## N#CC(C#N)=C1C=CC=CN1/C(=C\c1ccco1)C(=O)c1ccc(Cl)cc1
[7]
  IC50: 45.9 µM (inactive)
[8]
  IC50: 16.5 µM
[9]
  AC50: 6.85 µM (active)
[10]
  IC50: 3.64 µM (active)
[11]
  EC50: > 31.5 µM (inactive)
[12]
  IC50: 3.06 µM (active)
[13]
  IC50: 121 µM (active)
[14]
  IC50: 4.08 µM (active)
[15]
  IC50: 1.13 µM (active)
[16]
  CC50: 100 µM (active)

## COc1ccc(C(c2cc3c(cc2O)OCO3)N2CCCC2)cc1 (stereo not drawn)
[17]
  IC50: 14.6 µM (not active)

## COCCNC(=O)CCC(=O)NNc1nc2ccccc2c2nc(-c3ccccc3)nn12
[18]
  EC50: 82 µM (not active)

## CCc1nnc(NC(=O)c2ccc(OC)cc2OC)s1
[19]
  EC50: > 50 µM (not active)
[20]
  EC50: > 100 µM (not active)

## Cc1cc(C)nc(SCc2nnc(SCC(=O)Nc3cc(C(F)(F)F)ccc3Cl)o2)n1
[21]
  CC50: > 99 µM (not active)

## C[C@@H]1O[C@@H](O[C@H]2C[C@@H](O)[C@]3(CO)[C@H]4[C@H](O)C[C@]5(C)[C@@H](C6COC(=O)C6)CC[C@]5(O)[C@@H]4CC[C@]3(O)C2)[C@H](O)[C@H](O)[C@H]1O (stereo partly drawn)
[22]
  IC50: > 80 µM (inactive)
[23]
  CC50: 1.91 µM (active)
[24]
  EC50: 0.44 µM (active)
[25]
  EC50: 4.77 µM (inconclusive)
[26]
  IC50: < 0.05 µM (active)
[27]
  EC50: 0.251 µM (active)
[28]
  AC50: 1.28 µM (active)
[28]; Homo sapiens
  AC50: 1.46 µM (active)
[29]
  EC50: 0.132 µM (active)
[30]
  EC50: 2.78 µM (inconclusive)
[31]
  EC50: 0.102 µM (active)
[32]
  AC50: 5.38 µM (active)
[33]
  CC50: 4.84 µM (active)
[34]
  EC50: 0.39 µM (active)
[35]
  EC50: 0.405 µM (inconclusive)
[36]
  IC50: > 39.8 µM (not active)

## CCCOc1ccc(C2NC(S)=NC(c3ccccc3)=C2C(=O)Nc2ccc(C)cc2)cc1OC (stereo not drawn)
[37]
  EC50: > 100 µM (active)

Reference: ChEMBL document CHEMBL1201862, “PubChem BioAssay data set” (2004)
